From patent US10780092B2, “Fused pyrazine derivatives useful as soluble guanylate cyclase stimulators” (Merck Sharp & Dohme Corp., priority 2016, dated 2020)

How the values were obtained:
sGC α1/β1 heterodimer = sGC α1/β1 heterodimer (Homo sapiens (Human), UniProt Q02108+Q02153); assay: Cell-based sGC functional assay (CASA assay), cGMP by HTRF; conditions: CHO-K1/sGC cells; for Emax: CHO-K1, cGMP production as percentage of maximum of compound A (set to 100%), read-out: % Activation; for EC50: inflection point of cGMP production, 4P fit, read-out: IP; for % Activation: cGMP production as percentage of maximum of compound A (set to 100%)
Excerpt: Cell-Based sGC Functional Assay (Cyclic GMP Assay for sGC Activator: CASA Assay)
Soluble guanylate cyclase (sGC) is a heme-containing enzyme that converts GTP to secondary messenger cGMP. Increases in cGMP levels affect several physiological processes including vasorelaxation through multiple downstream pathways. […] Heme-dependent activators (HDAs) preferentially target sGC containing a ferrous heme group. To determine the effect of sGC activators on enzyme activity, the CASA assay was developed to monitor the generation of cGMP in a cell line that stably expresses the heterodimeric sGC protein.
A CHO-K1 cell line stably expressing the sGC α1/β1 heterodimer was generated using a standard transfection protocol. The cDNA's encoding human sGC α1 and β1 were cloned in pIRES hyg and pIRES neo respectively using standard molecular biology techniques. The plasmids pIRES hyg and pIRES neo plasmids were obtained from Clontech. CHO-K1 cells were transfected with plasmids pIREShyg-hsGCα1 and pIRESneo-hsGCβ1 simultaneously using FUGENE reagent. Clones that stably express both subunits were selected with hygromycin and neomycin for ˜2 weeks. The clone chosen for the assay was designated CHO-K1/sGC. CHO-K1/sGC cells were maintained in F-K12 medium containing 10% heat-inactivated Fetal Bovine Serum (FBS), 100 μg/mL penicillin/streptomycin, 0.5 mg/mL hygromycin and 0.25 mg/mL G418. The cells were then cryopreserved in liquid nitrogen. On the day of the assay, the cells were thawed and resuspended in EBSS Assay Buffer (Sigma, E3024) supplemented with 5 mM MgCl2, 10 mM HEPES (4-(2-hydroxyethyl)piperazine-1-ethanesulfonic acid) and 0.05% BSA (bovine serum albumin) and cell density was then adjusted to 2.25×10^5/mL with EAB. IBMX (3-isobutyl-1-methylxanthin, 0.5 mM) was added to inhibit degradation of cGMP. Compounds were diluted from DMSO stock solutions and added to the assay at a final DMSO concentration of 2.5%. Cells were pre-incubated in the presence and absence of 1 μM of Diethylenetriamine/nitric oxide adduct (DETA-NO; Sigma, 17018) for 30 min at 25° C. Compounds were subsequently added and incubated for 1 hr at 37° C. At the end of the incubation period, the reaction was terminated and the cells were lysed with the detection reagents from Cisbio Kits. The level of intracellular cGMP was determined using an HTRF-based assay kit (CisBio, 62GM2PEC), which detects the displacement of a fluorescence labeled cGMP from its specific antibody. The cGMP produced by test compounds was directly compared to the maximum cGMP production (this value was set to equal 100% activation) of the published sGC compound A (Example 1 in WO 2010/065275, published Jun. 10, 2010).
The test compounds' activities were then expressed as a percentage of compound A, the standard in every experiment. This percent activation was calculated either in the presence or absence of DETA-NO which was then plotted. Inflection points (IP) and maximum fold induction was derived using Abase analysis software for 4P fit.

[1] = biological target: human recombinant sGC enzyme (Homo sapiens (Human), UniProt Q02108+Q02153); assay: SEC competition binding assay with [3H] Compound B radioligand; conditions: displacement of 1.6 nM [3H] Compound B, 24 h at 37° C.
Method: The binding potencies of sGC compounds to the human recombinant sGC enzyme were determined in a Size Exclusion Chromatography (SEC) competition binding assay using [^3H] Compound B as the radioligand. [^3H] Compound B was prepared using a standardardized tritium exchange procedure. The parent (non-labeled) molecule was first iodinated then a Pd-catalyzed iodine to tritium exchange provided the labeled compound.
Method: The binding buffer was composed of 50 mM triethanolamine pH 7.4, 3 mM MgCl2, 0.025% BSA, 2 mM dithiothreitol (DTT), 300 μM DETA/NO and 400 μM GTP. Assays were conducted in 96-well plates in a total volume of 200 μL. Recombinant human sGC protein (40 ng) was incubated with 1.6 nM [^3H] Compound B for 24 h at 37° C. in the presence and absence of various concentrations of sGC testing compounds delivered as DMSO solutions to give a total of 1% organic solvent content. Non-specific binding was defined by competition with 1 μM of Compound B. After the incubation period, the binding mixtures were loaded onto the gel-filtration plate (ThermoFischer Cat. No. 89808) pre-equilibrated with binding buffer and spun at 1000×g for 3 min at 4° C. on a Bench top centrifuge. The collected eluates in White Frame Clear Well Isoplates (Perkin Elmer Cat #6005040) received 100 μl of UltimaGold scintillation cocktail. The sealed plates were shaken vigorously and span, and counted after 6 hs with a Wallac Microbeta TriLux 1450 LSC & Luminescence Counter (Perkin Elmer). Data from competition experiments were analyzed to determine Ki values using one site—fit Ki equation.

## CC1(c2ccc(F)c(O)c2)C(=O)Nc2nc(-c3cn4ncnc4c(CCC(F)(F)C(F)(F)F)n3)nc(N)c21 (racemic) [Example 114-B, 4-Amino-5-(4-fluoro-3-hydroxyphenyl)-5-methyl-2-(8-(3,3,4,4,4-pentafluorobutyl)-[1,2,4]-triazolo[1,5-a]pyrazin-6-yl)-5,7-dihydro-6H-pyrrolo(2,3-d]pyrimidin-6-one]
sGC α1/β1 heterodimer
  Emax: 112%
  EC50: 137 nM
[1]
  Ki: 4.95 nM

## CC1(c2ccc(O)c(F)c2)C(=O)Nc2nc(-c3cn4ncnc4c(CCC(F)(F)C(F)(F)F)n3)nc(N)c21 (racemic) [Example 116-B, 4-Amino-5-(3-fluoro-4-hydroxyphenyl)-5-methyl-2-(8-(3,3,4,4,4-pentafluorobutyl)-[1,2,4]triazolo[1,5-a]pyrazin-6-yl)-5,7-dihydro-6H-pyrrolo-[2,3-d]pyrimidin-6-one]
sGC α1/β1 heterodimer
  Emax: 137%
  EC50: 95 nM
[1]
  Ki: 6.37 nM

## CC1(c2cc(Cl)c(O)cn2)C(=O)Nc2nc(-c3cn4ccnc4c(Cc4ccccc4F)n3)nc(N)c21 (single isomer, unassigned) [Example 53-B, 4-Amino-5-(4-chloro-5-hydroxypyridin-2-yl)-2-{8-[(2-fluorophenyl)methyl]imidazo[1,2-a]pyrazin-6-yl}-5-methyl-5,7-dihydro-6H-pyrrolo[2,3-d]pyrimidin-6-one]
sGC α1/β1 heterodimer
  % Activation: 144%
  EC50: 771 nM
[1]
  Ki: 1.08 nM

## CC1(c2cc(Cl)c(O)cn2)C(=O)Nc2nc(-c3cn4ccnc4c(Cc4ccccc4F)n3)nc(N)c21 (single isomer, unassigned) [Example 104-B, 4-Amino-5-(4-chloro-5-hydroxypyridin-2-yl)-2-{8-[(2-fluorophenyl)methyl]imidazo[1,2-a]pyrazin-6-yl}-5-methyl-5,7-dihydro-6H-pyrrolo[2,3-d]pyrimidin-6-one]
sGC α1/β1 heterodimer
  Emax: 144%
  EC50: 813 nM
[1]
  Ki: 1.1 nM

## CC1CCC(Cc2nc(-c3nc(N)c4c(n3)NC(=O)C4(C)c3ccc(O)c(Cl)c3)cn3ccnc23)CC1 (single isomer, unassigned) [Example 120-BA, 4-Amino-5-(3-chloro-4-hydroxyphenyl)-5-methyl-2-{8-[(4-methyl-cyclohexyl)methyl]-imidazo[1,2-a]pyrazin-6-yl}-5,7-dihydro-6H-pyrrolo[2,3-d]pyrimidin-6-one]
sGC α1/β1 heterodimer
  Emax: 133%
  EC50: 85 nM
[1]
  Ki: 10.9 nM

## CC1CCC(Cc2nc(-c3nc(N)c4c(n3)NC(=O)C4(C)c3ccc(O)c(Cl)c3)cn3ccnc23)CC1 (single isomer, unassigned) [Example 120-BB, 4-Amino-5-(3-chloro-4-hydroxyphenyl)-5-methyl-2-{8-[(4-methylcyclo-hexyl)methyl]imidazo-[1,2-a]pyrazin-6-yl}-5,7-dihydro-6H-pyrrolo-[2,3-d]pyrimidin-6-one]
sGC α1/β1 heterodimer
  % Activation: 121%
  EC50: 39 nM
[1]
  Ki: 3.79 nM

## CC1(c2ccc(Cl)c(O)c2)C(=O)Nc2nc(-c3cn4ccnc4c(Cc4ccc(F)cc4)n3)nc(NCC(O)C(F)(F)F)c21 (single isomer, unassigned) [Example 132-AA, 5-(4-Chloro-3-hydroxy-phenyl)-2-{8-[(4-fluoro-phenyl)methyl]imidazo-[1,2-a]pyrazin-6-yl}-5-methyl-4-[(3,3,3-trifluoro-2-hydroxy-propyl)amino]-5,7-dihydro-6H-pyrrolo-[2,3-d]-pyrimidin-6-one]
sGC α1/β1 heterodimer
  Emax: 99%
  EC50: 746 nM
[1]
  Ki: 1.21 nM

## CC1(c2ccc(Cl)c(O)c2)C(=O)Nc2nc(-c3cn4ccnc4c(Cc4ccc(F)cc4)n3)nc(NCC(O)C(F)(F)F)c21 (single isomer, unassigned) [Example 132-AB, 5-(4-Chloro-3-hydroxy-phenyl)-2-{8-[(4-fluoro-phenyl)methyl]imidazo-[1,2-a]pyrazin-6-yl}-5-methyl-4-[(3,3,3-trifluoro-2-hydroxypropyl)amino]-5,7-dihydro-6H-pyrrolo-[2,3-d]pyrimidin-6-one]
sGC α1/β1 heterodimer
  % Activation: 95%
  EC50: 736 nM
[1]
  Ki: 1.46 nM

## CC1(c2ccc(Cl)c(O)c2)C(=O)Nc2nc(-c3cn4ncnc4c(CCC(F)(F)C(F)(F)F)n3)nc(NCC(O)C(F)(F)F)c21 (single isomer, unassigned) [Example 133-AA, 5-(4-Chloro-3-hydroxy-phenyl)-5-methyl-2-(8-(3,3,4,4,4-pentafluoro-butyl)-[1,2,4]triazolo-[1,5-a]pyrazin-6-yl)-4-[(3,3,3-trifluoro-2-hydroxypropyl)amino]-5,7-dihydro-6H-pyrrolo-[2,3-d]pyrimidin-6-one]
sGC α1/β1 heterodimer
  Emax: 38%
  EC50: 1290 nM
[1]
  Ki: 2.34 nM

## CC1(c2ccc(Cl)c(O)c2)C(=O)Nc2nc(-c3cn4ncnc4c(CCC(F)(F)C(F)(F)F)n3)nc(NCC(O)C(F)(F)F)c21 (single isomer, unassigned) [Example 133-AB, 5-(4-Chloro-3-hydroxy-phenyl)-5-methyl-2-(8-(3,3,4,4,4-pentafluoro-butyl)-[1,2,4]triazolo-[1,5-a]pyrazin-6-yl)-4-[(3,3,3-trifluoro-2-hydroxypropyl)amino]-5,7-dihydro-6H-pyrrolo-[2,3-d]pyrimidin-6-one]
sGC α1/β1 heterodimer
  % Activation: 48%
  EC50: 3380 nM
[1]
  Ki: 9.24 nM

## CC1(c2cc(O)c(Cl)c(F)c2)C(=O)Nc2nc(-c3cn4ccnc4c(Cc4cccc(F)c4)n3)nc(N)c21 (stereo not drawn) [Example 5-B, 4-Amino-5-(4-chloro-3-fluoro-5-hydroxyphenyl)-2-{8-[(3-fluorophenyl)methyl]imidazo[1,2-a]pyrazin-6-yl}-5-methyl-5,7-dihydro-6H-pyrrolo[2,3-d]pyrimidin-6-one]
sGC α1/β1 heterodimer
  Emax: 113%
  EC50: 188 nM
[1]
  Ki: 0.091 nM

## CC1(c2cc(O)c(Cl)c(F)c2)C(=O)Nc2nc(-c3cn4ccnc4c(Cc4cc(F)ccc4F)n3)nc(N)c21 (stereo not drawn) [Example 6-B, 4-Amino-5-(4-chloro-3-fluoro-5-hydroxyphenyl)-2-{8-[(2,5-difluorophenyl)methyl]imidazo[1,2-a]pyrazin-6-yl}-5-methyl-5,7-dihydro-6H-pyrrolo[2,3-d]pyrimidin-6-one]
sGC α1/β1 heterodimer
  Emax: 113%
  EC50: 94 nM
[1]
  Ki: 0.094 nM

## CC1(c2cc(O)c(Cl)c(F)c2)C(=O)Nc2nc(-c3cn4ccnc4c(Cc4cc(F)cc(F)c4F)n3)nc(N)c21 (stereo not drawn) [Example 7-B, 4-Amino-5-(4-chloro-3-fluoro-5-hydroxyphenyl)-5-methyl-2-{8-[(2,3,5-trifluorophenyl)methyl]imidazo[1,2-a]pyrazin-6-yl}-5,7-dihydro-6H-pyrrolo[2,3-d]pyrimidin-6-one]
sGC α1/β1 heterodimer
  Emax: 102%
  EC50: 217 nM
[1]
  Ki: 0.098 nM

## CC1(c2cc(O)c(F)c(F)c2)C(=O)Nc2nc(-c3cn4ccnc4c(Cc4ccccc4F)n3)nc(N)c21 (stereo not drawn) [Example 9-B, 4-Amino-5-(3,4-difluoro-5-hydroxyphenyl)-2-{8-[(2-fluorophenyl)methyl]imidazo[1,2-a]pyrazin-6-yl}-5-methyl-5,7-dihydro-6H-pyrrolo[2,3-d]pyrimidin-6-one]
sGC α1/β1 heterodimer
  Emax: 85%
  EC50: 1040 nM
[1]
  Ki: 0.126 nM
